Experimental data as given in patent publication US20250136606A1, “MODULATORS OF TRPML, THEIR COMPOSITIONS AND METHODS OF USE” (Caraway Therapeutics, Inc., priority 2021, published 2025).

Legend:
Format in all cases: cell-based
[1] = molecular target: TRPML1 (Homo sapiens, UniProt Q9GZU1); assay: Fluorescent TRPML1 assay (Fluo4-AM calcium fluorescence in doxycycline-induced HEK-293 Trex cells)
Procedure, shortened: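 HEK-293 Trex cells stably carrying human TRPML1 (surface-trafficking mutant) were induced overnight with 0.5 ug/mL doxycycline, loaded with 1 micromolar Fluo4-AM, and suspended in Ringer's with 10 mM calcium. Compounds at 20 micromolar to 6 nanomolar final, half-log steps, triplicate; fluorescence 480/540 nm gave percent activity versus controls and EC50 by non-linear regression.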

[2] = molecular target: T1, TRPML2 (Homo sapiens, UniProt Q8IZK6); assay: Fluorescent TRPML2 assay (performed as for TRPML1, substituting the TRPML2 subtype)
T1 construct: expressed in transfected cells
T1 sequence (Q8IZK6 1-566): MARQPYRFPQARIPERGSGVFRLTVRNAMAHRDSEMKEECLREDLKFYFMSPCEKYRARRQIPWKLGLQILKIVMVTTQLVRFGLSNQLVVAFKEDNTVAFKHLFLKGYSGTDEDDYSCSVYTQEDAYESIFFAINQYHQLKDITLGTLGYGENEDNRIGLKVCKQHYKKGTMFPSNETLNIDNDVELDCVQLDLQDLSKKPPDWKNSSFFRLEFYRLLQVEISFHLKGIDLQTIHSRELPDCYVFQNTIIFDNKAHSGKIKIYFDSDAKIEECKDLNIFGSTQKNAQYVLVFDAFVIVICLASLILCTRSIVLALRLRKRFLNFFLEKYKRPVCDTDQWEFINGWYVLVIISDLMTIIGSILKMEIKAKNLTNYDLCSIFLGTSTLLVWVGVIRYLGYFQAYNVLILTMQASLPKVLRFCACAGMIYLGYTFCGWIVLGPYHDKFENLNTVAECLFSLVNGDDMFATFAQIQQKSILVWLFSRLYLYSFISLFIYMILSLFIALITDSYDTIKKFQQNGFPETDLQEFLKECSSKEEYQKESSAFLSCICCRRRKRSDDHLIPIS
Procedure, shortened: (§1)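 Doxycycline-induced (0.5 ug/mL) HEK-293 Trex cells stably expressing surface-directed mutant channel were loaded with 1 micromolar Fluo4-AM, resuspended in Ringer's with 10 mM calcium and added to compound plates. Fluorescence (ex 480, em 540 nm) gave percent activity versus on-plate controls; EC50 by non-linear regression.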

[3] = molecular target: T2, TRPML3 (Homo sapiens, UniProt Q8TDD5); assay: Fluorescent TRPML3 assay (performed as for TRPML1, substituting the TRPML3 subtype)
T2 construct: expressed in transfected cells
T2 sequence (Q8TDD5 1-553): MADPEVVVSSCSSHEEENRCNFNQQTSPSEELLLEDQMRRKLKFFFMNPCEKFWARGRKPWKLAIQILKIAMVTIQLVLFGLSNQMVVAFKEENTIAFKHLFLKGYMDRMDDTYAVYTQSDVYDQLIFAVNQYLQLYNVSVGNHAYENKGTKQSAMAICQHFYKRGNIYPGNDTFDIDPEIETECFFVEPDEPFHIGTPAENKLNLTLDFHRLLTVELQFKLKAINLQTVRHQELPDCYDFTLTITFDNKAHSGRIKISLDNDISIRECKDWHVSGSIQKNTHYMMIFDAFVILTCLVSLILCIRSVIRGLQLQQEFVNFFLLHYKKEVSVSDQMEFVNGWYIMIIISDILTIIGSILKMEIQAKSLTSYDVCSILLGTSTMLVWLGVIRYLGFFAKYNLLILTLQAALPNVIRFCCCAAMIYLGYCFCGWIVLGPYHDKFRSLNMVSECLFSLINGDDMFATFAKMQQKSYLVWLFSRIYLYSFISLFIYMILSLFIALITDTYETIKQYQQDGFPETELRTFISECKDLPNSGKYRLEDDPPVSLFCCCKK
Procedure, shortened: as §1

Chain of TRPML1 (Q9GZU1 whole entry L15A/L16A/L577A/L578A, form open): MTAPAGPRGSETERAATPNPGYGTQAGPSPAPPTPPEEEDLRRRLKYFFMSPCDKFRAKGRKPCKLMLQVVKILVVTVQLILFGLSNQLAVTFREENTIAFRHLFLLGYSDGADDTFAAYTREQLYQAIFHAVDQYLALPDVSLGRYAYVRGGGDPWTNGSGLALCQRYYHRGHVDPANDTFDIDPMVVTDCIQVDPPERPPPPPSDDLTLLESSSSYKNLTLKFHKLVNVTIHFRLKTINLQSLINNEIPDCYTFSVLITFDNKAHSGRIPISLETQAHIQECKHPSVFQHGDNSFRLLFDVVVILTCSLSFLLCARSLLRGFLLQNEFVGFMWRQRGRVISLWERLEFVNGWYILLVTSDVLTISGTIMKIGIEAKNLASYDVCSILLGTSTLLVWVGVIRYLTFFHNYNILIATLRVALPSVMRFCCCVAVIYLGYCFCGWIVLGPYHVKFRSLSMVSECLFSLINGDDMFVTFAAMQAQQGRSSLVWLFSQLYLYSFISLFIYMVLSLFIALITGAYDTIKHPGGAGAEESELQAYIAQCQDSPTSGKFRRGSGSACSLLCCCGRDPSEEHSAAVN

Row | EC50 [1] [nM] | EC50 [2] [nM] | EC50 [3] [nM] | Compound
1 | < 100 | < 100 | 100 to 500 | C[C@@H]1CN(c2ncnc3c2c(C2CC2)cn3-c2cc(F)cc(F)c2)[C@@H](C)CN1C(=O)OC1(C)CC1 [Compound 655, 1-methylcyclopropyl (2R,5S)-4-(5-cyclopropyl-7-(3,5-difluorophenyl)-7H-pyrrolo[2,3-d]pyrimidin-4-yl)-2,5-dimethylpiperazine-1-carboxylate]
2 | < 100 | 100 to 500 | < 100 | C[C@@H]1CN(c2ncnc3c2c(C2CC2)cn3-c2cccc(F)c2)CCN1C(=O)OC(C)(C)C [Compound 656, tert-butyl (R)-4-(5-cyclopropyl-7-(3-fluorophenyl)-7H-pyrrolo[2,3-d]pyrimidin-4-yl)-2-methylpiperazine-1-carboxylate]
3 | < 100 | < 100 | < 100 | C[C@@H]1CN(c2ncnc3c2c(C2CC2)cn3-c2cccc(F)c2)[C@@H](C)CN1C(=O)OC(C)(C)C [Compound 657, tert-butyl (2R,5S)-4-(5-cyclopropyl-7-(3-fluorophenyl)-7H-pyrrolo[2,3-d]pyrimidin-4-yl)-2,5-dimethylpiperazine-1-carboxylate]
4 | < 100 | 500 to 2000 | 100 to 500 | C[C@@H]1CN(c2ncnc3c2c(C2CC2)cn3-c2cccc(F)c2)[C@@H](C)CN1C(=O)OC1(C)CC1 [Compound 658, 1-methylcyclopropyl (2R,5S)-4-(5-cyclopropyl-7-(3-fluorophenyl)-7H-pyrrolo[2,3-d]pyrimidin-4-yl)-2,5-dimethylpiperazine-1-carboxylate]
5 | < 100 | > 2000 | 100 to 500 | C[C@@H]1CN(c2ncnc3c2c(C(F)(F)F)cn3-c2cc(F)ccn2)[C@@H](C)CN1C(=O)OC1(C)CC1 [Compound 659, 1-methylcyclopropyl (2R,5S)-4-(7-(4-fluoropyridin-2-yl)-5-(trifluoromethyl)-7H-pyrrolo[2,3-d]pyrimidin-4-yl)-2,5-dimethylpiperazine-1-carboxylate]
6 | 100 to 500 | 500 to 2000 | 100 to 500 | C[C@H]1CN(C(=O)OC2(C)CC2)CCN1c1ncnc2c1c(C(F)(F)F)cn2-c1cccc(Cl)c1 [Compound 660, 1-methylcyclopropyl (S)-4-(7-(3-chlorophenyl)-5-(trifluoromethyl)-7H-pyrrolo[2,3-d]pyrimidin-4-yl)-3-methylpiperazine-1-carboxylate]
7 | 100 to 500 | 500 to 2000 | 100 to 500 | C[C@@H]1CN(c2ncnc3c2c(C(F)(F)F)cn3-c2cc(F)cc(F)c2)[C@@H](C)CN1C(=O)OC1(C)CC1 [Compound 661, 1-methylcyclopropyl (2R,5S)-4-(7-(3,5-difluorophenyl)-5-(trifluoromethyl)-7H-pyrrolo[2,3-d]pyrimidin-4-yl)-2,5-dimethylpiperazine-1-carboxylate]
8 | < 100 | 100 to 500 | < 100 | C[C@@H]1CN(c2ncnc3c2c(C(F)(F)F)cn3-c2cncc(C#N)c2)[C@@H](C)CN1C(=O)OC(C)(C)C [Compound 662, tert-butyl (2R,5S)-4-(7-(5-cyanopyridin-3-yl)-5-(trifluoromethyl)-7H-pyrrolo[2,3-d]pyrimidin-4-yl)-2,5-dimethylpiperazine-1-carboxylate]
9 | 100 to 500 | > 2000 | 100 to 500 | C[C@@H]1CN(c2ncnc3c2c(C(F)(F)F)cn3-c2ccccn2)[C@@H](C)CN1C(=O)OC(C)(C)C [Compound 663, tert-butyl (2R,5S)-2,5-dimethyl-4-(7-(pyridin-2-yl)-5-(trifluoromethyl)-7H-pyrrolo[2,3-d]pyrimidin-4-yl)piperazine-1-carboxylate]
10 | < 100 | 500 to 2000 | < 100 | COc1ccnc(-n2cc(C(F)(F)F)c3c(N4C[C@@H](C)N(C(=O)OC(C)(C)C)C[C@@H]4C)ncnc32)c1 [Compound 664, tert-butyl (2R,5S)-4-(7-(4-methoxypyridin-2-yl)-5-(trifluoromethyl)-7H-pyrrolo[2,3-d]pyrimidin-4-yl)-2,5-dimethylpiperazine-1-carboxylate]
11 | < 100 | 500 to 2000 | < 100 | Cc1ccnc(-n2cc(C(F)(F)F)c3c(N4C[C@@H](C)N(C(=O)OC(C)(C)C)C[C@@H]4C)ncnc32)c1 [Compound 665, tert-butyl (2R,5S)-2,5-dimethyl-4-(7-(4-methylpyridin-2-yl)-5-(trifluoromethyl)-7H-pyrrolo[2,3-d]pyrimidin-4-yl)piperazine-1-carboxylate]
12 | < 100 | 100 to 500 | 100 to 500 | Cc1cn(-c2cccc(F)c2)c2ncnc(N3C[C@@H](C)N(C(=O)OC(C)(C)C)C[C@@H]3C)c12 [Compound 666, tert-butyl (2R,5S)-4-(7-(3-fluorophenyl)-5-methyl-7H-pyrrolo[2,3-d]pyrimidin-4-yl)-2,5-dimethylpiperazine-1-carboxylate]
13 | < 100 | 100 to 500 | < 100 | Cc1cn(-c2cccc(C(F)(F)F)c2)c2ncnc(N3C[C@@H](C)N(C(=O)OC(C)(C)C)C[C@@H]3C)c12 [Compound 667, tert-butyl (2R,5S)-2,5-dimethyl-4-(5-methyl-7-(3-(trifluoromethyl)phenyl)-7H-pyrrolo[2,3-d]pyrimidin-4-yl)piperazine-1-carboxylate]
14 | 100 to 500 | 500 to 2000 | 100 to 500 | Cc1cn(-c2ccccc2)c2ncnc(N3C[C@@H](C)N(C(=O)OC(C)(C)C)C[C@@H]3C)c12 [Compound 668, tert-butyl (2R,5S)-2,5-dimethyl-4-(5-methyl-7-phenyl-7H-pyrrolo[2,3-d]pyrimidin-4-yl)piperazine-1-carboxylate]
15 | < 100 | 500 to 2000 | < 100 | Cc1cn(-c2cccc(C#N)c2)c2ncnc(N3C[C@@H](C)N(C(=O)OC(C)(C)C)C[C@@H]3C)c12 [Compound 669, tert-butyl (2R,5S)-4-(7-(3-cyanophenyl)-5-methyl-7H-pyrrolo[2,3-d]pyrimidin-4-yl)-2,5-dimethylpiperazine-1-carboxylate]
16 | 100 to 500 | 500 to 2000 | < 100 | Cc1cn(-c2cc(F)cc(F)c2)c2ncnc(N3C[C@@H](C)N(C(=O)OC(C)(C)C)C[C@@H]3C)c12 [Compound 670, tert-butyl (2R,5S)-4-(7-(3,5-difluorophenyl)-5-methyl-7H-pyrrolo[2,3-d]pyrimidin-4-yl)-2,5-dimethylpiperazine-1-carboxylate]
17 | < 100 | 100 to 500 | < 100 | Cc1cn(-c2cccc(Cl)c2)c2ncnc(N3C[C@@H](C)N(C(=O)OC(C)(C)C)C[C@@H]3C)c12 [Compound 671, tert-butyl (2R,5S)-4-(7-(3-chlorophenyl)-5-methyl-7H-pyrrolo[2,3-d]pyrimidin-4-yl)-2,5-dimethylpiperazine-1-carboxylate]
18 | 100 to 500 | 500 to 2000 | 100 to 500 | Cc1cn(-c2cncc(F)c2)c2ncnc(N3C[C@@H](C)N(C(=O)OC(C)(C)C)C[C@@H]3C)c12 [Compound 672, tert-butyl (2R,5S)-4-(7-(5-fluoropyridin-3-yl)-5-methyl-7H-pyrrolo[2,3-d]pyrimidin-4-yl)-2,5-dimethylpiperazine-1-carboxylate]
19 | 100 to 500 | > 2000 | 100 to 500 | Cc1cn(-c2ccccn2)c2ncnc(N3C[C@@H](C)N(C(=O)OC(C)(C)C)C[C@@H]3C)c12 [Compound 673, tert-butyl (2R,5S)-2,5-dimethyl-4-(5-methyl-7-(pyridin-2-yl)-7H-pyrrolo[2,3-d]pyrimidin-4-yl)piperazine-1-carboxylate]
20 | < 100 | 100 to 500 | 100 to 500 | Cc1cn(-c2cncc(C#N)c2)c2ncnc(N3C[C@@H](C)N(C(=O)OC(C)(C)C)C[C@@H]3C)c12 [Compound 675, tert-butyl (2R,5S)-4-(7-(5-cyanopyridin-3-yl)-5-methyl-7H-pyrrolo[2,3-d]pyrimidin-4-yl)-2,5-dimethylpiperazine-1-carboxylate]
